This is an account of results in a melting point compilation (Tetko et al.).

What is called melting point is the temperature, or range, at which the solid turns liquid.

Structures are written as SMILES.

`Cc1cc2occ(CC(=O)O)c2cc1C(C)C` returned a melting point of 141 to 143 °C.

The compound `FC(F)(F)Cn1c(S)nnc1N1CCOCC1` came in with a melting point of 175 to 177 °C.

Consider `O=C(O)C1CC1c1cccc(Cl)c1` (stereo not drawn), for which the melting point lay in the range of 89 to 91 °C.

Compound `N#CC1=C(N)CCC1` had a melting point of 146 to 148 °C.

`O=C(NCc1ccccc1)OCC(F)(F)F` displayed a melting point of 62 to 66 °C.

The compound `CN1CCN(S(=O)(=O)c2ccc3c(c2)CCN3)CC1` displayed a melting point of 176 to 178 °C.

`Cc1cc2cc(Cl)cc(Cl)c2[nH]1` registered a melting point of 49 to 51 °C.

The compound `COc1ccc2cc(/C=C/C(=O)O)ccc2c1` had a melting point of 183 to 195 °C.

For the compound `Cc1[nH]c2ccc(Oc3ccccc3)cc2c(=O)c1C`, the melting point was 289 to 291 °C.

Take `COc1ccc(NC(=O)NN)cc1`: the melting point is 146 to 148 °C.

For `O=C1C(Br)CCN1c1cccc([N+](=O)[O-])c1` (stereo not drawn), the melting point was in the range of 104 to 106 °C.

In the case of `CCOC(=O)c1c(N)nn2cc[nH]c12`, the melting point was 168 to 170 °C.

The compound `Cc1cc(C2(C)NC(=O)NC2=O)c(C)o1` (stereo not drawn) had a melting point of 144 to 146 °C.

Compound `CC1CCC(C(C)C)C(NC(=O)c2ccnc(F)c2)C1` (stereo not drawn) came in with a melting point of 79 to 81 °C.

Turning to `O=C(O)c1cc(Cl)nc(N2CCCC2)c1`, the melting point lay in the range of 215 to 217 °C.

`O=C(O)c1ccc(NC2CC2)nc1` returned a melting point of 178 to 180 °C.

Compound `COc1cc(C=C2CC(C(C)(C)C)Cc3c2nc2ccccc2c3C(=O)O)cc(OC)c1OC` (stereo not drawn) had a melting point of 220 to 222 °C.

For the compound `Nc1cncc(Br)c1`, the melting point was in the range of 65 to 69 °C.

On to `Nc1cc2c(cc1C(=O)O)OCCCO2`, for which the melting point was in the range of 160 to 162 °C.

`Fc1cccc(CBr)c1Cl`: the melting point was 39 to 41 °C.

`O=C(Cc1nc(CCl)cs1)Nc1ccccc1` had a melting point of 115 to 117 °C.

`CCC(C)C(N)C(N)=O` (stereo not drawn) came in with a melting point of 76 to 78 °C.

The compound `CC(C)NC(=O)Nc1ccccc1N` showed a melting point of 317 to 319 °C.

For `O=C(O)CCC=Cc1ccccc1`, the melting point lay in the range of 86 to 88 °C.

Compound `COc1ccc2c(c1)-c1sc(N)nc1CC2` yielded a melting point of 179 to 181 °C.

In the case of `CCc1ccc(OCC(=O)O)cc1`, the melting point fell in the range of 93 to 97 °C.

As to `Clc1nc(Cl)c2cn[nH]c2n1`, the melting point is 127 to 129 °C.

In turn, `Cc1nn(-c2ccc(Br)cc2)cc1C(=O)O` yielded a melting point of 229 to 231 °C.

As to `CC(C)(C)c1ccc(CC(=O)O)cc1`, the melting point lay in the range of 76 to 78 °C.

With `Cc1n[nH]c(C)c1S(=O)(=O)N1CCOCC1`, the melting point was in the range of 82 to 83 °C.

Consider `N#Cc1ccc(Cl)nn1`, for which the melting point is 83 to 85 °C.

The compound `Nc1ccc(NC(=O)c2ccco2)cc1C(F)(F)F` yielded a melting point of 120 to 122 °C.

`O=C(O)CCc1ccc(Br)cc1F`: the melting point lay within 97 to 99 °C.

Compound `CC(C)(C)c1ccc(-c2nnc(CCl)o2)cc1` gave a melting point of 65 to 67 °C.

`CCc1cc2c(=O)[nH]c(N3CCCC3)nc2s1` yielded a melting point of 253 to 255 °C.

`O=Cc1cc2ccccc2nc1O` came in with a melting point of 308 to 310 °C.

Consider `CC(C)(C)OC(=O)N1CCCCCC1C(N)=NO` (stereo not drawn), for which the melting point was 150 to 152 °C.

For the compound `Nc1ccc(C(=O)Nc2ccc3cn[nH]c3c2)cc1`, the melting point was 272 to 274 °C.

Turning to `CS(=O)(=O)NCC1CCCNC1` (stereo not drawn), the melting point lay in the range of 130 to 132 °C.

`Nc1ccc(Oc2ncccn2)cc1`: the melting point was 132 to 134 °C.

In turn, `O=C(CBr)CS(=O)(=O)c1ccccc1` yielded a melting point of 96 to 98 °C.

In turn, `CC(Cl)C(=O)NC1CCCC(C)C1C` (stereo not drawn) returned a melting point of 163 to 165 °C.

`O=C(O)/C(=C\c1ccccc1)c1cccs1` came in with a melting point of 169 to 171 °C.

Turning to `NCC1CCN(c2ccncc2)CC1`, the melting point fell in the range of 72 to 74 °C.

On to `O=C(O)Cc1ccc(NS(=O)(=O)c2cccc(C(F)(F)F)c2)cc1`, for which the melting point lay in the range of 122 to 124 °C.

`CCCn1c(N)c(NCCN2CCOCC2)c(=O)[nH]c1=O` yielded a melting point of 153 to 155 °C.

As to `O=C(O)CCCOc1cccc2ccccc12`, the melting point lay in the range of 116 to 118 °C.

As for `O=C(O)c1cc(-c2ccc3c(c2)CCO3)no1`, the melting point lay within 235 to 237 °C.

With `NCc1ccc(-c2ccc3c(c2)CCO3)cc1`, the melting point was 77 to 79 °C.

Turning to `O=C(O)c1ccc(Br)cc1C(F)(F)F`, the melting point lay within 116 to 117 °C.

`CC(=O)Nc1cccc(N=C=S)c1` gave a melting point of 154 to 156 °C.

As to `CS(=O)(=O)C1(C(=O)O)CCCC1`, the melting point lay within 117 to 119 °C.

Compound `O=C(Nc1ccccc1)C1CCc2ccccc2N1` (stereo not drawn) gave a melting point of 124 to 126 °C.

Consider `CN(C)C(=O)Cn1cnc(N)n1`, for which the melting point is 135 to 137 °C.

In turn, `Cc1csc(-c2ccc(N)cc2)n1` returned a melting point of 111 to 113 °C.

The compound `CC(C)(C)c1nc(C(=O)O)cs1` came in with a melting point of 126 to 128 °C.

Regarding `O=C(NC(C(=O)O)c1ccccc1)OCC1c2ccccc2-c2ccccc21` (stereo not drawn), the melting point lay in the range of 170 to 172 °C.

`CN(C)S(=O)(=O)c1ccc(C#N)cc1` had a melting point of 128 to 130 °C.

Consider `COc1cc(NS(=O)(=O)c2ccc(N)cc2)cc(OC)c1`, for which the melting point is 153 to 155 °C.

With `CCOC(=O)C1CN(C(=O)OC(C)(C)C)CCN1` (stereo not drawn), the melting point was 55 to 57 °C.

In the case of `CC1CSc2ccccc2NC1=O` (stereo not drawn), the melting point was in the range of 178 to 180 °C.

`Nc1nc(-c2ccc[nH]2)cs1` showed a melting point of 155 to 159 °C.

`c1ccc2[nH]c(-c3ccncc3)cc2c1` had a melting point of 208 to 210 °C.

Take `Nc1ccccc1C(=O)N1CCCCC1`: the melting point was 79 to 83 °C.

`O=C(O)C1(c2cccc(Cl)c2)CCC1`: the melting point fell in the range of 101 to 103 °C.

Compound `Cc1ccc(-c2csc(CN)n2)cc1` registered a melting point of 72 to 74 °C.

`O=C(O)c1[nH]nc(C2CC2)c1Cl` registered a melting point of 231 to 233 °C.

On to `COC(=O)CCSc1ccc([N+](=O)[O-])cc1C(=O)O`, for which the melting point was in the range of 165 to 167 °C.

Regarding `COc1ccc(N)cc1OCC(=O)NC1CC1`, the melting point fell in the range of 87 to 89 °C.

Compound `OC1(Cc2ccccc2)CCCC1` yielded a melting point of 56 to 58 °C.

In turn, `CNC(=O)c1cnc(C)s1` registered a melting point of 172 to 174 °C.

The compound `N#CCc1c[nH]c2ccc(Cl)cc12` showed a melting point of 104 to 106 °C.

For `CC(=O)N1CCC(NC(=O)CCl)CC1`, the melting point lay in the range of 120 to 122 °C.

In turn, `N#CCS(=O)(=O)c1cc(Br)ccc1Br` displayed a melting point of 134 to 136 °C.

With `CN(CC(=O)O)C(=O)c1ccc(Br)s1`, the melting point was in the range of 114 to 116 °C.

Compound `Oc1ccc(OCC2CC2)cc1` showed a melting point of 54 to 56 °C.

Take `COc1cc2c(C#N)c(OC)nc(N)c2c(N)n1`: the melting point fell in the range of 249 to 251 °C.

`CC1(C)NC(=O)C1(C)C` came in with a melting point of 95 to 97 °C.

Take `c1ccc(CNc2ccc(N3CCOCC3)cc2)nc1`: the melting point was in the range of 132 to 134 °C.

`CN(CC(=O)O)C(=O)c1cccs1` returned a melting point of 101 to 103 °C.

The compound `NS(=O)(=O)c1ccc(Cl)c(S(=O)(=O)Cl)c1` showed a melting point of 185 to 187 °C.

In turn, `Cn1c(N)nc2cc(F)ccc21` displayed a melting point of 152 to 154 °C.

Turning to `O=S(=O)(Cl)c1ccc2nc(Cl)ccc2c1`, the melting point is 138 to 140 °C.

Consider `O=C(O)c1cc(-c2cccnc2)on1`, for which the melting point lay within 179 to 181 °C.

The compound `Cc1ccc(NC(=O)NC(=O)CCl)cc1C` yielded a melting point of 144 to 146 °C.

On to `CC(C)NC(=O)c1cccc(CN)c1`, for which the melting point was 105 to 107 °C.

On to `Cn1cc(C#N)cc1C(=O)C(Cl)(Cl)Cl`, for which the melting point is 146 to 148 °C.

Compound `CCN1CCN(c2ccc(N)cc2)CC1` came in with a melting point of 70 to 72 °C.

`O=C(O)c1cnc2c(Br)cccc2c1O` registered a melting point of 276 to 278 °C.

Take `Cc1cc(NC(N)=S)n(C)n1`: the melting point lay in the range of 218 to 220 °C.

The compound `COc1cccc2c1OCC(C(=O)O)=C2` had a melting point of 239 to 241 °C.

As to `CN(C)S(=O)(=O)c1ccc(CCl)o1`, the melting point lay within 54 to 56 °C.

In turn, `CCC(=O)c1cc(F)cc(Br)c1` came in with a melting point of 29 to 31 °C.

The compound `CN1CCN(C(=O)Cn2cc(N)cn2)CC1` gave a melting point of 119 to 121 °C.

Take `NC(=O)CCOc1ccccc1F`: the melting point fell in the range of 85 to 87 °C.

`Nc1cccc(S(=O)(=O)Nc2ccccc2F)c1` registered a melting point of 195 to 197 °C.

Regarding `Cn1ncc(-c2nc(C3CC3)no2)c1N`, the melting point is 159 to 161 °C.

With `O=C(O)COc1cc(F)ccc1F`, the melting point was 151 to 153 °C.

Turning to `Oc1ccc(-c2nnco2)cc1`, the melting point lay in the range of 210 to 212 °C.

`CC(C)c1c(C(=O)O)nnn1-c1ccc(F)cc1` gave a melting point of 146 to 148 °C.

On to `Nc1ccc(-c2cc[nH]n2)cc1`, for which the melting point was in the range of 99 to 101 °C.

In turn, `CC(C)(C)OC(=O)C(C#N)c1nccnc1Cl` (stereo not drawn) showed a melting point of 62 to 64 °C.

The compound `NC(=NO)c1ccnc(N2CCCCC2)c1` registered a melting point of 179 to 181 °C.

Regarding `O=C(O)Cn1ccnn1`, the melting point lay in the range of 214 to 216 °C.

`N#CCc1coc(-c2ccccc2)n1`: the melting point is 87 to 89 °C.

In turn, `CC(C)(C)OC(=O)NCCc1nnc2n1CCCC2` returned a melting point of 158 to 160 °C.

Compound `CC1(Br)CS(=O)(=O)CC1Br` (stereo not drawn) showed a melting point of 126 to 128 °C.

`CCOc1ccc(NC2CCN(CC(F)(F)F)CC2)cc1` returned a melting point of 54 to 56 °C.

`O=C1CCOc2c(Cl)cccc21` gave a melting point of 62 to 64 °C.

Take `O=C(CCl)c1cc([N+](=O)[O-])c[nH]1`: the melting point fell in the range of 199 to 201 °C.

`CCOC(=O)CNC(=O)NCC(=O)OCC` came in with a melting point of 146 to 148 °C.

The compound `CC1CCCCC1(NC(=O)OC(C)(C)C)C(=O)O` (stereo not drawn) had a melting point of 174 to 176 °C.

Compound `COc1ccc(Br)cc1C(=O)CBr` gave a melting point of 92 to 94 °C.

`CC(C)c1nnc(C(C)C)[nH]1` gave a melting point of 147 to 149 °C.

`O=C(O)C1CCCSC1` (stereo not drawn) displayed a melting point of 76 to 78 °C.

In turn, `O=C(CCl)N1CCN(S(=O)(=O)c2ccccc2Cl)CC1` displayed a melting point of 215 to 217 °C.

Compound `O=[N+]([O-])c1cnn(CCCl)c1` returned a melting point of 55 to 57 °C.

Compound `CC(=O)c1cccc(-c2ccncc2)c1` gave a melting point of 64 to 66 °C.

`O=S(=O)(Cl)Cc1c(Cl)cccc1Cl` returned a melting point of 70 to 72 °C.

The compound `CCN(C(C)=O)c1nc(CCl)cs1` came in with a melting point of 82 to 84 °C.

The compound `NCC(O)COc1cccc(C(F)(F)F)c1` (stereo not drawn) displayed a melting point of 66 to 68 °C.

`CCc1c(-c2ccncc2)n[nH]c1N` displayed a melting point of 154 to 156 °C.

`Cc1nc(NN)c2c3c(sc2n1)CCC3`: the melting point fell in the range of 182 to 184 °C.
